Source: patent US12213483B1, “Herbicidal compositions comprising trifludimoxazin” (BASF SE, priority 2024, dated 2025)

Legend:
Type in all cases: in vivo
[1] = tested on: Lolium multiflorum (LOLMU); experiment: Post-emergence application in greenhouse trials, LOLMU; details: 20 DAT
Description: (§1) In the examples below, using the method of S. R. Colby (1967) “Calculating synergistic and antagonistic responses of herbicide combinations”, Weeds 15, p. 22ff., the value E, which is expected if the activity of the individual active compounds is only additive, was calculated: E=X+Y−(X·Y/100) • where • X=percent activity using active herbicide A at an application rate a; • Y=percent activity using active trifludimoxazin at an application rate b; • E=expected activity (in %) by A+B at application rates a+b.
(§2) If the value found experimentally is higher than the value E calculated according to Colby, a synergistic effect is present.
(§3) The culture containers used were plastic pots containing loamy sand with approximately 3.0% of humus as substrate. The seeds of the test plants were sown separately for each species.
(§4) For the post-emergence treatment, the test plants were grown to a plant height of from 3 to 15 cm, depending on the plant habit, and only then treated with the active compounds which had been suspended or emulsified in water. To this end, the test plants were either sown directly, and grown in the same containers, or they were first grown separately as seedlings and transplanted into the test containers a few days prior to treatment.
(§5) Depending on the species, the plants were kept at 10-25° C. and 20-35° C., respectively.
(§6) The test period extended over 2 to 4 weeks. During this time, the plants were tended and their response to the individual treatments was evaluated.
(§7) Evaluation was carried out using a scale from 0 to 100. 100 means no emergence of the plants, or complete destruction of at least the above-ground parts, and 0 means no damage or normal course of growth. A good herbicidal activity is given at values of at least 70, and very good herbicidal activity is given at values of at least 85.
(§8) In the greenhouse trials, unless indicated otherwise, herbicide A, trifludimoxazin and saflufenacil were formulated (50 g/I) and applied with addition of 1% MSO (methylated seed oil) as adjuvant. The solvent used was water (200 I/ha).

[2] = tested on: Commelina benghalensis (COMBE); experiment: Post-emergence application in greenhouse trials, COMBE
Description: as §1, §2, §3, §4, §5, §6, §7, §8

[3] = tested on: Brachiaria decumbens (BRADC); experiment: Post-emergence application in greenhouse trials, BRADC; details: GS 13
Description: as §1, §2, §3, §4, §5, §6, §7, §8

[4] = tested on: Digitaria sanguinales (DIGSA); experiment: Post-emergence application in greenhouse trials, DIGSA
Description: as §1, §2, §3, §4, §5, §6, §7, §8

Avena fatua (AVEFA) [5] = experiment: Post-emergence application in greenhouse trials, AVEFA
Description: as §1, §2, §3, §4, §5, §6, §7, §8

Setaria faberi (SETFA) = experiment: Post-emergence application in greenhouse trials, SETFA; details: GS 13
Description: as §1, §2, §3, §4, §5, §6, §7, §8

Cyperus iria (CYPIR) = experiment: Post-emergence application in field trials, CYPIR; details: 3 DAT, height 3-5 cm
Description: as §1, §2
(§9) On field test sites, natural weed infestation or seeded weeds were treated post-emergence of the weeds.
(§10) In the field trials, the weedy plants were treated as indicated below.
(§11) Herbicide A-1 (342 g/I), trifludimoxazin (500 g/I) and saflufenacil (342 g/I) were, together with addition of 1% MSO (methylated seed oil) as adjuvant (unless indicated otherwise), formulated in water as distribution medium as indicated and sprayed with commercial flat fan nozzles.
(§12) In the following experiments, the herbicidal activity for the individual herbicidal compositions (solo and mixture applications) was assessed at the indicated days after treatment (DAT). The assessments for the damage on undesired weeds caused by the composition was carried out using a scale from 0 to 100%, compared to the untreated control plants. Here, 0 means no damage and 100 means complete destruction of the plants.
(§13) Herbicide A-1 (100 g/l) and trifludimoxazin (500 g/l) were, together with addition of 1% MSO (methylated seed oil) as adjuvant (unless indicated otherwise), formulated in water as distribution medium as indicated and sprayed with commercial flat fan nozzles.

[6] = tested on: Spermacoce latifolia (BOIFL); experiment: Post-emergence application in field trials, BOIFL; details: 8 DAT, water volume 200 l/ha, growth stage 12-16, height 3-10 cm
Description: as §1, §2, §9, §10, §11, §12, §13

[7] = tested on: Sorghum halapense (SORHA); experiment: Post-emergence application in greenhouse trials, SORHA
Description: as §1, §2, §3, §4, §5, §6, §7, §8

Setaria viridis (SETVI) = experiment: Post-emergence application in greenhouse trials, SETVI
Description: as §1, §2, §3, §4, §5, §6, §7, §8

Avena fatua (AVEFA) [8] = experiment: Post-emergence application in field trials, AVEFA; details: 29 DAT; water volume 100 l/ha; pre plant burndown; growth stage 14-23; height 24-40 cm; 18 g ai/ha
Description: as §1, §2, §9, §10, §11, §12, §13

Hordeum vulgare (HORVS) = experiment: Post-emergence application in field trials, HORVS; details: water volume 100 l/ha, pre plant burndown, 18 g ai/ha
Description: as §1, §2, §9, §10, §11, §12, §13

[9] = tested on: Erigeron canadensis (ERICA); experiment: Post-emergence application in greenhouse trials, ERICA; details: 20 DAT; GS 19; A-1 0.2 g ai/ha
Description: as §1, §2, §3
For the post-emergence treatment, the test plants were grown to a plant height of from 3 to 15 cm, depending on the plant habit, and only then treated with the active compounds which had been suspended or emulsified in water. To this end, the test plants were either sown directly, and grown in the same containers, or they were first grown separately as seedlings and transplanted into the test containers a few days prior to treatment. […]
The test period extended over 2 to 4 weeks. During this time, the plants were tended and their response to the individual treatments was evaluated. […]

[10] = tested on: Amaranthus palmeri (AMAPA); experiment: Post-emergence application in field trials, AMAPA; details: 21 DAT, water volume 200 l/ha, 0.25 l/ha Dash MSO Max, pre plant burndown, height 30 cm
Description: as §1, §2, §9, §10, §11, §12, §13

[11] = 20 DAT, growth stage 14, 0.3 g ai/ha

In the case of `CCOC(=O)COc1ccccc1Oc1nc(-n2c(=O)cc(C(F)(F)F)n(C)c2=O)c(F)cc1Cl` [A-1, ethyl 2-[2-[[3-chloro-5-fluoro-6-[3-methyl-2,6-dioxo-4-(trifluoromethyl)pyrimidin-1-yl]-2-pyridyl]oxy]phenoxy]acetate], the “% Herbicidal activity” value ([1]; GS 13, A-1 0.3 g ai/ha) is reported as 10%, the “% Herbicidal activity” value ([1]; growth stage 13, 0.3 g ai/ha) is reported as 10% and the “% Herbicidal activity” value ([2]; 6 DAT, GS 21, A-1 0.3 g ai/ha) is reported as 65%. The “% Herbicidal activity” value ([2]; 20 DAT, GS 21, A-1 0.3 g ai/ha) was 45%, the “% Herbicidal activity” value ([2]; 20 DAT, growth stage 21, 0.3 g ai/ha) was 45% and the “% Herbicidal activity” value ([3]; 7 DAT, B-1 formulated as 500 g/l, A-1 2 g ai/ha) was 90%. For the same compound, the “% Herbicidal activity” value ([3]; 7 DAT, A-1 0.4 g ai/ha) was 40%, the “% Herbicidal activity” value ([3]; 7 DAT, A-1 0.8 g ai/ha) was 50% and the “% Herbicidal activity” value ([3]; 7 DAT, A-1 0.9 g ai/ha) was 60%. For the same compound, the “% Herbicidal activity” value ([3]; 7 DAT, A-1 1 g ai/ha) was 60%, the “% Herbicidal activity” value ([3]; 20 DAT, B-1 formulated as 500 g/l, A-1 2 g ai/ha) was 90% and the “% Herbicidal activity” value ([3]; 20 DAT, A-1 0.9 g ai/ha) was 55%. The “% Herbicidal activity” value ([4]; 7 DAT, GS 12, A-1 0.3 g ai/ha) was 45%, the “% Herbicidal activity” value ([4]; 7 DAT, GS 12, A-1 0.4 g ai/ha) was 50% and the “% Herbicidal activity” value ([4]; 7 DAT, GS 12, A-1 0.8 g ai/ha) was 65%. The “% Herbicidal activity” value ([4]; 7 DAT, GS 12, A-1 0.9 g ai/ha) was 90%, the “% Herbicidal activity” value ([4]; 19 DAT, B-1 formulated as 500 g/l, GS 13, A-1 1 g ai/ha) was 95% and the “% Herbicidal activity” value (Avena fatua (AVEFA) [5]; 7 DAT, GS 13, A-1 1 g ai/ha) was 65%. The “% Herbicidal activity” value (Avena fatua (AVEFA) [5]; 20 DAT, B-1 formulated as 500 g/l, GS 12, A-1 2 g ai/ha) was 98%, the “% Herbicidal activity” value (Avena fatua (AVEFA) [5]; 20 DAT, GS 13, A-1 0.3 g ai/ha) was 15% and the “% Herbicidal activity” value (Avena fatua (AVEFA) [5]; 20 DAT, growth stage 13, 0.3 g ai/ha) was 15%. The “% Herbicidal activity” value (Setaria faberi (SETFA); 7 DAT, A-1 0.3 g ai/ha) was 55%, the “% Herbicidal activity” value (Setaria faberi (SETFA); 7 DAT, A-1 0.5 g ai/ha) was 80% and the “% Herbicidal activity” value (Setaria faberi (SETFA); 20 DAT, A-1 0.3 g ai/ha) was 80%. The “% Herbicidal activity” value (Cyperus iria (CYPIR); water volume 200 l/ha, growth stage 13-14, 25 g ai/ha) was 23%, the “% Herbicidal activity” value (Cyperus iria (CYPIR); water volume 300 l/ha, burndown in fruit plantation (citrus), GS 13-14, A-1 25 g ai/ha) was 23% and the “% Herbicidal activity” value ([6]; 20 g ai/ha) was 75%. The “% Herbicidal activity” value ([6]; 30 g ai/ha) was 82%, the “% Herbicidal activity” value ([7]; 7 DAT, B-1 formulated as 500 g/l, GS 14, A-1 2 g ai/ha) was 80% and the “% Herbicidal activity” value ([7]; 20 DAT, B-1 formulated as 500 g/l, GS 14, A-1 2 g ai/ha) was 60%. The “% Herbicidal activity” value ([7]; 20 DAT, GS 14, A-1 0.2 g ai/ha) was 10%, the “% Herbicidal activity” value ([7]; 20 DAT, GS 14, A-1 0.3 g ai/ha) was 10% and the “% Herbicidal activity” value [7, 11] was 10%. For the same compound, the “% Herbicidal activity” value (Setaria viridis (SETVI); 7 DAT, GS 14, A-1 0.2 g ai/ha) was 30%, the “% Herbicidal activity” value (Setaria viridis (SETVI); 7 DAT, GS 14, A-1 0.3 g ai/ha) was 30% and the “% Herbicidal activity” value (Setaria viridis (SETVI); 7 DAT, GS 14, A-1 0.4 g ai/ha) was 40%. The “% Herbicidal activity” value (Setaria viridis (SETVI); 20 DAT, GS 14, A-1 0.3 g ai/ha) was 15%, the “% Herbicidal activity” value (Setaria viridis (SETVI); [11]) was 15% and the “% Herbicidal activity” value (Avena fatua (AVEFA) [8]) was 80%. For the same compound, the “% Herbicidal activity” value (Hordeum vulgare (HORVS); 28 DAT, growth stage 21-24, height 15-37 cm) was 89%, the “% Herbicidal activity” value (Hordeum vulgare (HORVS); 29 DAT, growth stage 15-24, height 25-45 cm) was 73% and the “% Herbicidal activity” value [9] was 10%. For the same compound, the “% Herbicidal activity” value ([10]; A-1 12.5 g ai/ha) was 70% and the “% Herbicidal activity” value ([10]; A-1 25 g ai/ha) was 85%.
